Experimental data reported in PMC9298352, “Design, Synthesis and Structural Analysis of Glucocerebrosidase Imaging Agents” (Chemistry (Weinheim an Der Bergstrasse, Germany), 2021).

Key:
[1] = molecular target: T1, rhGBA (Homo sapiens, UniProt P04062); experiment: pH dependent activity-based labelling of rhGBA by ABP 6 and ABP 9; assay type: biochemical; details: rhGBA 200 nM, ABP 150 nM, pH 4.5, 5.2 or 7.4, 37 °C, 30 mins
T1 construct: made in house; host or cells: insect-baculovirus expression vector system (BEVS)
T1 sequence (P04062 40-536): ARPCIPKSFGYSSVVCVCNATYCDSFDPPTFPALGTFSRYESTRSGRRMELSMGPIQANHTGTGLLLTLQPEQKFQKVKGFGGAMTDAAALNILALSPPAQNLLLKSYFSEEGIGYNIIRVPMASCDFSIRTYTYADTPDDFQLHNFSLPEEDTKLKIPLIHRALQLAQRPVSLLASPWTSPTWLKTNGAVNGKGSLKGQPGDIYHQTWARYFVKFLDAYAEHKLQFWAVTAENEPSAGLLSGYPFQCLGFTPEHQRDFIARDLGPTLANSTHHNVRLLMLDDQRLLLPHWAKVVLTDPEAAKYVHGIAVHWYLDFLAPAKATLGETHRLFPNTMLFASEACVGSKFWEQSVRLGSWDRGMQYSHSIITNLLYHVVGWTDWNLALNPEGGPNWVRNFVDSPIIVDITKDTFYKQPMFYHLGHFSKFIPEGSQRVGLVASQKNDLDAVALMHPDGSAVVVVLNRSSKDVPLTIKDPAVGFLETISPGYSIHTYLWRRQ
Method: Cy5 tetrazine 20 (2.83 mg, 4.3 µmol) was added to a solution of norbornene 19 (0.94 mg, 2.38 µmol) in MeOH (4 mL). After stirring overnight at rt, the reaction mixture was concentrated in vacuo and purified by HPLC under neutral conditions (A: 50 mM NH4HCO3 in H2O; B: MeCN; 49% → 52%, A in B) yielding ABP 7 (2.12 mg, 2.07 µmol, 87%) as a mixture of regioisomers.
Biochemical Methods: General Experimental Details
Recombinant human GBA (rhGBA, imiglucerase, Cerezyme®) and GAA (rhGAA, alglucosidase alfa, Myozyme) were obtained from Sanofi Genzyme (Cambridge, MA, USA). HEK293T (CRL-3216) cell lines were purchased from ATCC (Manassas, VA, USA). […] All the tissue lysates were prepared in potassium phosphate lysis buffer (25 mM in pH 6.5, supplemented with 0.1% (v/v) Triton X-100 and protease inhibitor 1x cocktail (Roche)) via homogenization with silent crusher S equipped with Typ 7 F/S head (30 rpm x 1000, 3 × 7 sec) on ice and lysate concentration was determined with Bicinchoninic acid (BCA) Protein Assay Kit (PierceTM)[7]. […]
ABP 9 were diluted with DMSO into various concentrations (200x of the final concentration), and 5 µL of ABP at different concentrations were added into 1 mL fresh medium containing cells and incubated at 37°C for 24 h. […] The protein concentrations were determined using BCA kit. […]

[2] = molecular target: T1, rhGBA; experiment: rhGBA titration with constant ABP 6 and ABP 9 (gel-based labelling); assay type: biochemical; details: ABP 150 nM, rhGBA 500–0.01 nM, 37 °C, 30 mins
Method: Maximum‐likelihood/σA weighted (2Fo–Fc) electron density map contoured to 1.0 σ (a=1.31 e^−/Å^3). […] Fluorescently labelled rhGBA visualized by Cy5 fluorescent readout. D=denatured protein sample.
rhGBA produced in BEVS[58] was prepared at 500, 250, 100, 50, 10, 1, 0.1 and 0.01 nM in 150 mM McIlvaine buffer pH 5.2 (supplemented with 0.1 % (v/v) Triton X‐100 and 0.2 % (w/v) sodium taurocholate). […] The samples were denatured with Laemmli (x3) sample buffer by heating at 95 °C for 5 minutes and resolved by electrophoresis in 10 % SDS‐PAGE gels, running at 200 V for ∼50 minutes. Wet slab gels were scanned on fluorescence using an Amersham Typhoon 5 Imager (GE Healthcare) with λEX 635 nm; λEM >665 nm.

CCCCCCCCN1[C@@H]2[C@H](Cn3cc(CNC(=O)CCCCC[N+]4=C(/C=C/C=C/C=C5/N(C)c6ccccc6C5(C)C)C(C)(C)c5ccccc54)nn3)[C@@H](O)[C@H](O)[C@@H](O)[C@@H]21 (some centres unmarked) [ABP 6]
pH dependence of rhGBA labelling [1]: greater labelling at acidin pH (4.5 and 5.2)
lowest rhGBA concentration labelled [2]: 1 nM
